US4528293A, “Heteroaromatic derivatives of iminomethyl piperidines and use to inhibit gastric acid secretion” (McNeilab, Inc., priority 1983, dated 1985)

Tested on: gastric acid secretion
Assay: Acute gastric fistula rat test: inhibition of gastric acid secretion (Total Acid Output)
Format: in vivo, Female Sprague-Dawley rats
Details: ip, compound administered intraperitoneally (footnote *), read-out: ED50 Acute Gastric Fistula (dose required to produce an average of 50% inhibition in Total Acid Output versus controls)
Description: The compounds of the invention of formula (I) are useful for the inhibition of gastric acid secretion as measured by the following test. Female Sprague-Dawley rats are fasted twenty-four hours before testing and are given water ad libidum while being kept in individual cages. On the day of testing, the rats are weighed within a range of ±20 grams.
Surgery is carried out under light ether anesthesia. As soon as the rat is anesthetized its teeth are removed and a mid-line incision is made on the abdomen about 11/2 inches in length and the stomach and duodenum are exposed. If at this point the stomach is filled with food or fecal material, the rat is discarded. If the condition of the stomach is acceptable, a purse string stitch is placed on the fundic portion of the stomach with a suture, taking care not to pierce any blood vessels in the area. A small nick is then made into the stomach in the center of the purse string, and a cannula, consisting of a small vinyl tube with a flange on one end, is put into the stomach, and the purse string stitch is closed tightly around the flange. The test compound is administered either intraduodonally (i.d.) immediately after surgery or orally (p.o.) one hour prior to surgery at doses generally ranging from about 0.25 to about 160 mg/kg in a volume of 0.5 ml/100 grams rat. Control rats receive the test vehicle, 0.5% aqueous hydroxypropyl methyl cellulose.
After surgery and, in the case of i.d. administration, after administration of the test compound, the abdominal wall and skin are closed simultaneously with three or four 18 mm wound clips and a collecting tube is placed on the cannula. Each rat is then placed in a box in which a longitudinal slit has been made to allow the cannula to hang freely and to allow the rat to move about unencumbered. After the rat has been allowed to stabilize for thirty minutes, the collection tube on the cannula is discarded and replaced with a clean tube to receive the gastric juice. Collections are made one hour after stabilization.
The sample of gastric contents collected is drained into a centrifuge tube and centrifuged to pack down the sediment. The volume is read and a 1 ml aliquot of the supernatant is put into a beaker containing 20 ml of distilled water and is titrated to pH 7 using 0.01N sodium hydroxide. Results are determined for Volume, Titratable Acid and Total Acid Output, where Volume equals total ml of gastric juice minus sediment; Titratable Acid (meq/1) equals amount of 0.01N sodium hydroxide needed to titrate the acid to pH 7; and Total Acid Output equals Titratable Acid times Volume. Results are reported as the ED50 dose (mg/kg required to produce an average of 50% inhibition in Total Acid Output versus controls in the animals tested for a particular compound) and as percent inhibition.

C(=NCCc1c[nH]c2ccccc12)N1CCC(C(c2ccccc2)c2ccccc2)CC1 [Example 2, N-(4-Diphenylmethyl-1-piperidinyl)-methylene-3-1H-indoleethaneamine monohydroiodide] was tested, and the ED50 was 4.34 mg/kg.

Same assay, conditions: po, one hour prior to surgery, 1 h collection after 30 min stabilization, read-out: ED50 Acute Gastric Fistula (dose required to produce an average of 50% inhibition in Total Acid Output versus controls)

C(=NCc1cccs1)N1CCC(C(c2ccccc2)c2ccccc2)CC1 [Example 4, 4-(Diphenylmethyl)-1-[(2-thiophenemethyl)imino]methylpiperidine (E)-2-butenedioate (1:1) hydrate (2:1)] and C(=NCc1ccco1)N1CCC(C(c2ccccc2)c2ccccc2)CC1 [Example 1, 4-(Diphenylmethyl)-1-[(2-furanylmethyl)iminomethyl]piperidine (E)-2-butenedioate (1:1) hydrate (5:2)] are within 1.5-fold of each other in ED50: 6.59 mg/kg for the first, 6.91 mg/kg for the second.

Cn1cccc1CCN=CN1CCC(C(c2ccccc2)c2ccccc2)CC1.O=C(O)/C=C/C(=O)O [Example 3, 4-Diphenylmethyl-1-[N-[(1-methyl-1H-pyrrol-2-yl)ethyl]-iminomethyl]piperidine (E)-2-butenedioate] and C(=NCCc1ccccn1)N1CCC(C(c2ccccc2)c2ccccc2)CC1 [Example 5, 4-(Diphenylmethyl-1[[2-(2-pyridinyl)ethyl]iminomethyl]piperidine (E)-2-butenedioate (1:1)] are within 1.5-fold of each other in ED50: 3.61 mg/kg for the first, 3.47 mg/kg for the second.

In the case of C(=NCCc1ccncc1)N1CCC(C(c2ccccc2)c2ccccc2)CC1 [Example 6, 4-Diphenylmethyl-1-[[2-(4-pyridinyl)ethyl]iminomethyl]piperidine 2-naphthalenesulfonate hydrate (4:4:3)], the ED50 was 18.8 mg/kg.
